In patent US20230190867A1, “METHODS OF TREATING NASH AND COMPOSITIONS THEREFORE” (BIOINCEPT, LLC, priority 2018, published 2023):

Key:
[1] = test system: Kv flux; assay type: cell-based; design: Effectiveness: scale not given here; settings: for Effectiveness / Kv flux 100% in nt (stimulus buffer only): conc. 0.625 uM; for K+ inhibition as compared with sPIF: dose comparison analysis
Procedure: Currently, effective immunomodulatory agents, with minimal side effects, that can regulate inflammation in the liver to promote liver health in the setting of chronic liver disease have not been developed and they are desperately needed. […] In addition, the effect of TxpIC on these cells were tested This is a potent chemical mimicking viarl infection in the liver.

[2] = test system: HepaRG cells induced by TxpIC; assay: Inflammatory gene expression in TxpIC-induced HepaRG cells (real-time PCR); assay type: cell-based, human; settings: TxpIC 500 ng/ml
Text: Methods Primary human hepatocytes (PHHs) and HepaRG™ cells were studied. The later are terminally differentiated hepatic cells derived from a human hepatic progenitor cell line that retains many characteristics of primary human hepatocytes were purchased from Thermo Fisher Scientific Inc. (MA, USA). PHHs were also obtained from Dr. David Geller, at the University of Pittsburgh, through the NIH funded Liver Tissue and Cell Distribution System (LTCDS) and maintained in Williams E Medium containing cell maintenance supplement reagents from Invitrogen (Carlsbad, Calif.). The HCV JFH strain was used in cell culture experiments at an M.O.I. of 0.5-1. […] In other experiments TxpIC at 500 ng/ml were added to the cells. […] Fluorescence real-time PCR analysis was preformed using an ABI 7500 instrument (Applied Biosystems, Foster City, Calif.) and TaqMan gene expression assay (Applied Biosystems). Relative amounts of mRNA, determined using a FAM-Labeled TaqMan Probe, were normalized to the 18S ribosomal RNA levels in each PCR reaction using the eukaryotic 18S rRNA endogenous control from ABI (VIC/MGB Probe, Primer Limited, Cat #4319413E). The delta 2(-Delta Delta C(T)) method was used for quantitation of relative mRNA levels and fold induction.

[3] = test system: TxpIC-induced primary human hepatocytes (PHH); assay: Inflammatory gene expression in TxpIC-induced primary human hepatocytes; assay type: cell-based; settings: for Tx pIC induced CxCl10 expression: as compared with sPIF; for Tx pIC induced RSAD2: sPIF 200 nM
Text: (§1) Methods Primary human hepatocytes (PHHs) and HepaRG™ cells were studied. The later are terminally differentiated hepatic cells derived from a human hepatic progenitor cell line that retains many characteristics of primary human hepatocytes were purchased from Thermo Fisher Scientific Inc. (MA, USA). PHHs were also obtained from Dr. David Geller, at the University of Pittsburgh, through the NIH funded Liver Tissue and Cell Distribution System (LTCDS) and maintained in Williams E Medium containing cell maintenance supplement reagents from Invitrogen (Carlsbad, Calif.). The HCV JFH strain was used in cell culture experiments at an M.O.I. of 0.5-1. […] In other experiments TxpIC at 500 ng/ml were added to the cells. This chemical replicates a viral induced inflammation and therefore it can be used in different cell types also when hepatitis C infection is difficult to induce. […] Li, K. (2012). Hepatology, 55: 666-675. For analysis of endogenous mRNA levels, total RNA was isolated from cells using the RNeasy RNA extraction kit (Qiagen, Valencia, Calif.) and cDNA synthesis was performed using 0.5 μg of total RNA (Transcriptor First Strand cDNA Synthesis Kit, Roche, Basel, Switzerland). Fluorescence real-time PCR analysis was preformed using an ABI 7500 instrument (Applied Biosystems, Foster City, Calif.) and TaqMan gene expression assay (Applied Biosystems). Relative amounts of mRNA, determined using a FAM-Labeled TaqMan Probe, were normalized to the 18S ribosomal RNA levels in each PCR reaction using the eukaryotic 18S rRNA endogenous control from ABI (VIC/MGB Probe, Primer Limited, Cat #4319413E). The delta 2(-Delta Delta C(T)) method was used for quantitation of relative mRNA levels and fold induction.

[4] = test system: Hepatitis C (HCV)-induced primary human hepatocytes (PHH); assay: Inflammatory gene expression in HCV-induced primary human hepatocytes; assay type: cell-based
Text: as §1

| Sequence | Effectiveness [1] | Kv flux 100% in nt (stimulus buffer only) [1] | further results |
| --- | --- | --- | --- |
| MVRIFPGSANKPSDD [PIF-pos2] | −17.02 | 117% | – |
| MVRIIPGSANKPSDD [PIF-pos4] | −1.117 | 101.1% | – |
| MVRIKPGSANKPSFD [PIF-pos10] | 53.72 | 46.28% | effect on RSAD2 compared with sPIF [2]: similar; suppression of CxCL10, IL28, CCL5 compared with sPIF ([2]; time dependent): more pronounced suppression than sPIF; 500 ng/ml TpxIC induced CCL5 [3]: Inhibitory effect; Tx pIC induced CxCl10 expression [3]: inhibit; Tx pIC induced RSAD2 [3]: inhibit; HCV induced CXCL10 expression [4]: inhibit; HCV induced IL28 expression [4]: Inhibitory effect; INFa induced suppression of HCV [4]: potentiate; K+ inhibition as compared with sPIF [1]: increased K+ inhibition as compared with sPIF |
| MVRIKPGSANKWSDD [PIF-pos9] | 34.09 | 65.91% | – |
| MVRIKPGSANWPSDD [PIF-pos8] | 45.79 | 54.21% | – |
| MVRIKPGSWNKPSDD [PIF-pos7] | −22.27 | 122.3% | – |
| MVRIKPWSANKPSDD [PIF-pos6] | −20.45 | 120.5% | – |
| MVRIKPYSANKPSDD [PIF-pos5] | 22.81 | 77.19% | – |
| MVRIWPGSANKPSDD [PIF-pos1] | 47.8 | 52.2% | – |
| MVRIYPGSANKPSDD [PIF-pos3] | 52.05 | 47.95% | 500 ng/ml TpxIC induced CCL5 [3]: Inhibitory effect; Tx pIC induced CxCl10 expression [3]: inhibit; Tx pIC induced RSAD2 [3]: inhibit; HCV induced CXCL10 expression [4]: inhibit; INFa induced suppression of HCV [4]: potentiate; K+ inhibition as compared with sPIF [1]: increased K+ inhibition as compared with sPIF |
